# Test results as given in patent US7803788B2, “Prodrugs of phosphonate nucoleotide analogues” (Gilead Sciences, Inc., priority 2000, dated 2010).
# Like-named read-outs stand apart in the source and are kept apart here.
# What was measured:
# HIV-1 = assay: In vitro anti-HIV-1 activity in MT-2 cells; type: cell-based
# MT-2 cells = assay: Cytotoxicity in MT-2 cells; conditions: Table 4
# [1] = dogs, oral, 10 mg-equivalent of PMPA/kg
# Method: Formulations. The prodrugs were formulated as solutions in 50 mM citric acid within 0.5 hour prior to dose. All compounds used in the studies were synthesized by Gilead Sciences. The following lots were used:
# Dose Administration and Sample Collection. The in-life phase of this study was conducted in accordance with the recommendations of the “Guide for the Care and Use of Laboratory Animals” (National Institutes of Health publication 86-23) and was approved by an Institutional Animal Care and Use Committee. Fasted male beagle dogs (10±2 kg) were used for the studies. Each drug was administered as a single dose by oral gavage (1.5-2 ml/kg). The dose was 10 mg-equivalent of PMPA/kg. […] Blood (1.0 ml) was processed immediately for plasma by centrifugation at 2,000 rpm for 10 min. Plasma samples were frozen and maintained at […] until analyzed.
# Peripheral Blood Mononuclear Cell (PBMC) preparation. Whole blood (8 ml) drawn at specified time points was mixed in equal proportion with phosphate buffered saline (PBS), layered onto 15 ml of Ficoll-Paque solution (Pharmacia Biotech,) and centrifuged at 400×g for 40 min. PBMC layer was removed and washed once with PBS. Formed PMBC pellet was reconstituted in 0.5 ml of PBS, cells were resuspended, counted using hemocytometer and maintained at […] until analyzed. The number of cells multiplied by the mean single-cell volume was used in calculation of intracellular concentrations. […] Agents Chemother.
# Determination of PMPA and Prodrugs in plasma and PBMCs. […] Derivatized samples were then evaporated to dryness and reconstituted in 100 μl of water for HPLC analysis.
# Before intracellular PMPA could be determined by HPLC, the large amounts of adenine related ribonucleotides present in the PBMC extracts had to be removed by selective oxidation.
# The mobile phases used were: A, 5% acetonitrile in 25 mM potassium phosphate buffer with 5 mM tetrabutyl ammonium bromide (TBABr), pH 6.0; B, 60% acetonitrile in 25 mM potassium phosphate buffer with 5 mM TBABr, pH 6.0. The flow rate was 2 ml/min and the column temperature was maintained at 35° C. by a column oven. […] Data was acquired and stored by a laboratory data acquisition system (PeakPro, Beckman, Allendale, N.J.).
# Pharmacokinetic Calculations. […] The AUC values were calculated using the trapezoidal rule.
# [2] = Excretion and tissue distribution of radiolabelled GS-7340 in dogs; conditions: for % Dose / Conc.: dogs, oral 10 mg-eq. PMPA/kg
# Method: Plasma and peripheral blood mononuclear cells (PBMCs) were obtained over the 24-hr period. Urine and feces were cage collected over 24 hr. At 24 h after the dose, the animals were sacrificed and tissues removed for analysis. Total radioactivity in tissues was determined by oxidation and liquid scintillation counting.
# [3] = Stability in human plasma; type: in vitro ADME; conditions: 37° C., TBS pH 7.5
# Method: (§1) The in vitro metabolism and stability of separated diastereomers were determined in PLCE, MT-2 extract and human plasma. A biological sample listed below, 80 μL, was transferred into a screw-capped centrifuge tube and incubated at 37° C. for 5 min. A solution containing 0.2 mg/mL of the test compound in a suitable buffer, 20 μL, was added to the biological sample and mixed. The reaction mixture, 20 μL, was immediately sampled and mixed with 60 μL of methanol containing 0.015 mg/mL of 2-hydroxymethylnaphthalene as an internal standard for HPLC analysis. The sample was taken as the time-zero sample. Then, at specific time points, the reaction mixture, 20 μL, was sampled and mixed with 60 μl of methanol containing the internal standard. The mixture thus obtained was centrifuged at 15,000 G for 5 min and the supernatant was analyzed with HPLC under the conditions described below.
# (§2) The biological samples evaluated are as follows, • (1) PLCE (porcine liver carboxyesterase from Sigma, 160 u/mg protein, 21 mg protein/mL) diluted 20 fold with PBS (phosphated-buffered saline). • (2) MT-2 cell extract was prepared from MT-2 cells according to the published procedure [A. Pompon, I. Lefebvre, J.-L. Imbach, S. Kahn, and D. Farquhar, “Antiviral Chemistry & Chemotherapy”, 5:91-98 (1994)] except for using HEPES buffer described below as the medium. • (3) Human plasma (pooled normal human plasma from George King Biomedical Systems, Inc.)
# In the study for human plasma, the test compound was dissolved in TBS. TBS (tris-buffered saline, Sigma) contains 0.05 M Tris, 0.0027 M potassium chloride, and 0.138 M sodium chloride. pH 7.5 at 37° C.
# (§3) The HPLC analysis was carried out under the following conditions.
# [4] = Stability / hydrolysis in MT-2 cell extract; type: in vitro ADME; conditions: 37° C., HEPES buffer pH 7.4
# Method: as §1, §2
# In the study for MT-2 cell extracts, the test compound was dissolved in HEPES buffer. HEPES buffer contains 0.010 M HEPES, 0.05 M potassium chloride, 0.005 M magnesium chloride, and 0.005 M dl-dithiothreitol. pH 7.4 at 37° C.
# as §3
# [5] = Table 4, activity of isomer A over isomer B
# [6] = Table 4, effect of diastereomer, read-out: IC50
# [7] = Table 5 (selected IC50 data from Table 4), read-out: HIV IC50
structure (smiles),measurement,setting,value
"CCOC(=O)C(C)NP(=O)(COC(C)Cn1cnc2c(N)ncnc21)Oc1ccccc1 (mixture of isomers) [Ala-ethyl, Phenyl PMPA, Ethyl L-Alanyl Amidate]",Fold change,"HIV-1; Table 4, IC50 relative to PMPA",250x
same,A/B activity,HIV-1; [5],10x
same,CC50,MT-2 cells,60000 nM
COC(=O)C(C)NP(=O)(COC(C)Cn1cnc2c(N)ncnc21)Oc1ccccc1 (mixture of isomers) [Ala-methylester],Fold change,"HIV-1; Table 4, IC50 relative to PMPA",200x
same,A/B activity,HIV-1; [5],20x
same,CC50,MT-2 cells,80000 nM
CCOC(=O)CNP(=O)(COC(C)Cn1cnc2c(N)ncnc21)Oc1ccccc1 (mixture of isomers) [Gly-ethylester],A/B activity,HIV-1,20x
same,Fold change,HIV-1,10x
same,IC50,HIV-1; read-out: IC50,500 nM
"COC(=O)C(C)NP(=O)(COC(C)Cn1cnc2c(N)ncnc21)Oc1ccccc1 (single isomer, unassigned) [GS-6957a]",Fold change,"HIV-1; Table 4, IC50 relative to PMPA",670x
"COC(=O)C(C)NP(=O)(COC(C)Cn1cnc2c(N)ncnc21)Oc1ccccc1 (single isomer, unassigned) [GS-6957b]",Fold change,"HIV-1; Table 4, IC50 relative to PMPA",33x
"COC(=O)C(Cc1ccccc1)NP(=O)(COC(C)Cn1cnc2c(N)ncnc21)Oc1ccccc1 (single isomer, unassigned) [GS-7003a]",Fold change,HIV-1,500x
"COC(=O)C(Cc1ccccc1)NP(=O)(COC(C)Cn1cnc2c(N)ncnc21)Oc1ccccc1 (single isomer, unassigned) [GS-7003b]",Fold change,HIV-1,50x
"CCOC(=O)C(C)NP(=O)(COC(C)Cn1cnc2c(N)ncnc21)Oc1ccccc1 (single isomer, unassigned) [GS-7114]",IC50,HIV-1; [6],5 nM
same,Fold change,"HIV-1; Table 4, IC50 relative to PMPA","1,000x"
same,PBMC/Plasma Exposure Ratio,[1],122
same,Prodrug in Plasma,[1],YES
"CCOC(=O)C(C)NP(=O)(COC(C)Cn1cnc2c(N)ncnc21)Oc1ccccc1 (single isomer, unassigned) [GS-7115]",IC50,HIV-1; [6],50 nM
same,Fold change,"HIV-1; Table 4, IC50 relative to PMPA",100x
same,PBMC/Plasma Exposure Ratio,[1],43
same,Prodrug in Plasma,[1],YES
"CCOC(=O)CNP(=O)(COC(C)Cn1cnc2c(N)ncnc21)Oc1ccccc1 (single isomer, unassigned) [GS-7335]",Fold change,HIV-1,5x
"CC(C)OC(=O)C(C)NP(=O)(COC(C)Cn1cnc2c(N)ncnc21)Oc1ccccc1 (single isomer, unassigned) [compound 4]",IC50,HIV-1; [7],60 nM
CCOC(=O)[C@H](CC)NP(=O)(CO[C@H](C)Cn1cnc2c(N)ncnc21)Oc1ccccc1 (some centres unmarked) [ABA-ethyl],A/B activity,HIV-1,7.5x
same,Fold change,HIV-1,625x
same,CC50,MT-2 cells,> 100000 nM
CCOC(=O)CNP(=O)(CO[C@H](C)Cn1cnc2c(N)ncnc21)Oc1ccccc1 (some centres unmarked) [GS-7119],Fold change,HIV-1,100x
same,CC50,MT-2 cells,> 100000 nM
CC(C)OC(=O)[C@H](C)N[P@](=O)(CO[C@H](C)Cn1cnc2c(N)ncnc21)Oc1ccccc1 [GS-7339],IC50,HIV-1; [6],60 nM
same,CC50,MT-2 cells,> 100000 nM
CCOC(=O)C(CC)NP(=O)(COC(C)Cn1cnc2c(N)ncnc21)Oc1ccccc1 (centres unmarked) [GS-7342],Fold change,HIV-1,"1,250x"
"C[C@H](Cn1cnc2c(N)ncnc21)OCP(=O)(O)O [PMPA, (R)-9-[2-(phosphonomethoxy)propyl]adenine, reference compound]",Fold change,HIV-1,1x
COC(=O)[C@H](Cc1ccccc1)NP(=O)(CO[C@H](C)Cn1cnc2c(N)ncnc21)Oc1ccccc1 (some centres unmarked) [Phe-methylester],A/B activity,HIV-1,10x
same,Fold change,HIV-1,170x
"CC(C)OC(=O)OCOP(=O)(CO[C@H](C)Cn1cnc2c(N)ncnc21)OCOC(=O)OC(C)C.O=C(O)/C=C/C(=O)O [TDF, tenofovir disoproxil fumarate]",% Dose,[2]; Abdominal fat,0.00%
same,Conc.,[2]; Abdominal fat,0.16 ug-eq/g
same,% Dose,[2]; Adrenal Gland,0.00%
same,Conc.,[2]; Adrenal Gland,1.90 ug-eq/g
same,% Dose,[2]; Axillary Lymph Nodes,0.00%
same,Conc.,[2]; Axillary Lymph Nodes,0.37 ug-eq/g
same,% Dose,[2]; Bile,0.00%
same,% Dose,[2]; Bone Marrow,0.00%
same,Conc.,[2]; Bone Marrow,0.20 ug-eq/g
same,% Dose,[2]; Brain,0.00%
same,Conc.,[2]; Brain,<LOD
same,% Dose,[2]; Cerebrospinal Fluid,0.00%
same,Conc.,[2]; Cerebrospinal Fluid,<LOD
same,% Dose,[2]; Duodenum,0.49%
same,% Dose,[2]; Eye (L + R),0.00%
same,Conc.,[2]; Eye (L + R),0.06 ug-eq/g
same,% Dose,[2]; Femoral Bone,0.00%
same,Conc.,[2]; Femoral Bone,0.08 ug-eq/g
same,% Dose,[2]; Gall bladder,0.00%
same,% Dose,[2]; Heart,0.03%
same,Conc.,[2]; Heart,0.46 ug-eq/g
same,% Dose,[2]; Ileum,0.01%
same,Conc.,[2]; Ileum,0.50 ug-eq/g
same,% Dose,[2]; Iliac Lymph Nodes,0.00%
same,Conc.,[2]; Iliac Lymph Nodes,0.51 ug-eq/g
same,% Dose,[2]; Inguinal Lymph Nodes,0.00%
same,Conc.,[2]; Inguinal Lymph Nodes,0.28 ug-eq/g
same,% Dose,[2]; Lungs,0.03%
same,Conc.,[2]; Lungs,0.53 ug-eq/g
same,% Dose,[2]; Mesenteric Lymph Nodes,0.00%
same,Conc.,[2]; Mesenteric Lymph Nodes,1.20 ug-eq/g
same,% Dose,[2]; Pancreas,0.00%
same,Conc.,[2]; Pancreas,0.57 ug-eq/g
same,% Dose,[2]; Pituitary Gland,0.00%
same,Conc.,[2]; Pituitary Gland,0.23 ug-eq/g
same,% Dose,[2]; Prostate,0.00%
same,Conc.,[2]; Prostate,0.23 ug-eq/g
same,% Dose,[2]; Salivary Gland (L + R),0.00%
same,Conc.,[2]; Salivary Gland (L + R),0.45 ug-eq/g
same,% Dose,[2]; Skeletal Muscle,0.00%
same,Conc.,[2]; Skeletal Muscle,0.11 ug-eq/g
same,% Dose,[2]; Skin,0.00%
same,Conc.,[2]; Skin,0.13 ug-eq/g
same,% Dose,[2]; Spinal Cord,0.00%
same,Conc.,[2]; Spinal Cord,<LOD
same,% Dose,[2]; Spleen,0.00%
same,Conc.,[2]; Spleen,0.63 ug-eq/g
same,% Dose,[2]; Stomach,0.11%
same,% Dose,[2]; Testes (L + R),0.02%
same,% Dose,[2]; Thyroid Gland,0.00%
same,Conc.,[2]; Thyroid Gland,0.30 ug-eq/g
same,% Dose,[2]; Whole Blood,0.00%
same,Conc.,[2]; Whole Blood,0.85 ug-eq/g
same,prodrug concentration in the plasma,"[2]; dog, in vivo",below the level of assay detection
CC(C)OC(=O)[C@H](C)N[P@](=O)(CO[C@H](C)Cn1cnc2c(N)ncnc21)Oc1ccccc1 [compound 3],IC50,HIV-1; [7],5 nM
same,Human Plasma Stability (HP) t1/2,[3],90.0 min
same,MT-2 extract hydrolysis product,[4],Met. X & PMPA
CC(C)OC(=O)OCOP(=O)(CO[C@H](C)Cn1cnc2c(N)ncnc21)OCOC(=O)OC(C)C [compound 7],Human Plasma Stability (HP) t1/2,[3],0.41 min
